Test results from patent US12365696B2, “Small-molecule focal adhesion kinase (FAK) inhibitors” (DANA-FARBER CANCER INSTITUTE, INC., priority 2019, dated 2025).

What was measured:
Assay in all cases: KINOMEscan
Assay type in all cases: binding
CASK = CASK (Homo sapiens (Human), UniProt O14936); conditions: 10000 nM, read-out: Percent Control
ALK(L1196M) = ALK(L1196M) (Homo sapiens (Human), UniProt Q9UM73, L1196M); conditions: 10000 nM, read-out: Percent Control
S6K1 = S6K1 (Homo sapiens (Human), UniProt P23443); conditions: S6K1, 10000 nM; read-out: Percent Control
FYN = FYN (Homo sapiens (Human), UniProt P06241); conditions: 10000 nM, read-out: Percent Control
LTK = LTK (Homo sapiens (Human), UniProt P29376); conditions: 10000 nM, read-out: Percent Control
LATS1 = LATS1 (Homo sapiens (Human), UniProt O95835); conditions: LATS1, 10000 nM; read-out: Percent Control
EGFR(G719C) = EGFR(G719C) (Homo sapiens (Human), UniProt P00533, G719C); conditions: 10000 nM, read-out: Percent Control
IRAK4 = IRAK4 (Homo sapiens (Human), UniProt Q9NWZ3); conditions: IRAK4, 10000 nM; read-out: Percent Control
FAK = FAK (Homo sapiens (Human), UniProt Q05397); conditions: 10000 nM, read-out: Percent Control
EGFR(L858R, T790M) = EGFR(L858R, T790M) (Homo sapiens (Human), UniProt P00533, L858R/T790M); conditions: 10000 nM, read-out: Percent Control
[1] = target: RSK4(Kin.Dom.2-C-terminal) (Homo sapiens (Human), UniProt Q9UK32); conditions: 10000 nM, read-out: Percent Control
Sequence of RSK4(Kin.Dom.2-C-terminal) (Q9UK32 426-683): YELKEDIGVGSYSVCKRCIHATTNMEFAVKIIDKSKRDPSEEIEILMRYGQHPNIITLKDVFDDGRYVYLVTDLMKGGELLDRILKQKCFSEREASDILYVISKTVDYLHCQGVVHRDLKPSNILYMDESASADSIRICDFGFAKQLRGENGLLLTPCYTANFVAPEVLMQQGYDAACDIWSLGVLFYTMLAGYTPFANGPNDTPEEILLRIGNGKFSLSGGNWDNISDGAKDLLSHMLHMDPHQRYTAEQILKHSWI

LKB1 = LKB1 (Homo sapiens (Human), UniProt Q15831); conditions: LKB1, 10000 nM; read-out: Percent Control
ABL1-nonphosphorylated = ABL1-nonphosphorylated (Homo sapiens (Human), UniProt P00519); conditions: 10000 nM, read-out: Percent Control
PRKD2 = PRKD2 (Homo sapiens (Human), UniProt Q9BZL6); conditions: PRKD2, 10000 nM; read-out: Percent Control
CLK2 = CLK2 (Homo sapiens (Human), UniProt P49760); conditions: CLK2, 10000 nM; read-out: Percent Control
TGFBR1 = TGFBR1 (Homo sapiens (Human), UniProt P36897); conditions: TGFBR1, 10000 nM; read-out: Percent Control
SNRK = SNRK (Homo sapiens (Human), UniProt Q9NRH2); conditions: 10000 nM, read-out: Percent Control
AURKC = AURKC (Homo sapiens (Human), UniProt Q9UQB9); conditions: 10000 nM, read-out: Percent Control
PRKR = PRKR (Homo sapiens (Human), UniProt P19525); conditions: 10000 nM, read-out: Percent Control
HPK1 = HPK1 (Homo sapiens (Human), UniProt Q92918); conditions: HPK1, 10000 nM; read-out: Percent Control
Sequence of HPK1 (Q92918 whole entry): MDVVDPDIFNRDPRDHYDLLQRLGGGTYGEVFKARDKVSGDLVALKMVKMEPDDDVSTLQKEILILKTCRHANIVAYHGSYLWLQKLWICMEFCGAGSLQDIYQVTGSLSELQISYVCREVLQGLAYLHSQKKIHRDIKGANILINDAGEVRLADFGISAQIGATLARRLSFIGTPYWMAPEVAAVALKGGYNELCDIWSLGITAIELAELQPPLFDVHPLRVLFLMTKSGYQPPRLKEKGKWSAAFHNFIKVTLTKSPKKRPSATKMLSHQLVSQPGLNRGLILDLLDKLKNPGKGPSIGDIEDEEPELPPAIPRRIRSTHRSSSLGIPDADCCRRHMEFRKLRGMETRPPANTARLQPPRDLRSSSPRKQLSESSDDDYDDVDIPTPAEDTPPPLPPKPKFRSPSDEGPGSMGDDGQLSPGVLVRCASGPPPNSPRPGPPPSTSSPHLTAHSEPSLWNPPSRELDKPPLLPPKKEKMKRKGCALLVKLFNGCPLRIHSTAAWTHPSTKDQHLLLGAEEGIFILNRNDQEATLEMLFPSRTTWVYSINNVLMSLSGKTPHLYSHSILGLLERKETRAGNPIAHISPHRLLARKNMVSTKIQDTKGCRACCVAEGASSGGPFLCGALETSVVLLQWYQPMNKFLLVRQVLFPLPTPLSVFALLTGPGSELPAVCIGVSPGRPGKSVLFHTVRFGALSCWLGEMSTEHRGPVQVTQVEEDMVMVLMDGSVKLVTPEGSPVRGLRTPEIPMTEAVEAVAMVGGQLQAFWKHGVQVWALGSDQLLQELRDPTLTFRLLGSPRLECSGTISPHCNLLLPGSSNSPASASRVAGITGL

FLT4 = FLT4 (Homo sapiens (Human), UniProt P35916); conditions: FLT4, 10000 nM; read-out: Percent Control
TAK1 = TAK1 (Homo sapiens (Human), UniProt O43318); conditions: TAK1, 10000 nM; read-out: Percent Control
RIOK3 = RIOK3 (Homo sapiens (Human), UniProt O14730); conditions: RIOK3, 10000 nM; read-out: Percent Control
SRPK3 = SRPK3 (Homo sapiens (Human), UniProt Q9UPE1); conditions: SRPK3, 10000 nM; read-out: Percent Control
ARK5 = ARK5 (Homo sapiens (Human), UniProt O60285); conditions: ARK5, 10000 nM; read-out: Percent Control
JNK3 = JNK3 (Homo sapiens (Human), UniProt P53779); conditions: JNK3, 10000 nM; read-out: Percent Control
Sequence of JNK3 (P53779 whole entry): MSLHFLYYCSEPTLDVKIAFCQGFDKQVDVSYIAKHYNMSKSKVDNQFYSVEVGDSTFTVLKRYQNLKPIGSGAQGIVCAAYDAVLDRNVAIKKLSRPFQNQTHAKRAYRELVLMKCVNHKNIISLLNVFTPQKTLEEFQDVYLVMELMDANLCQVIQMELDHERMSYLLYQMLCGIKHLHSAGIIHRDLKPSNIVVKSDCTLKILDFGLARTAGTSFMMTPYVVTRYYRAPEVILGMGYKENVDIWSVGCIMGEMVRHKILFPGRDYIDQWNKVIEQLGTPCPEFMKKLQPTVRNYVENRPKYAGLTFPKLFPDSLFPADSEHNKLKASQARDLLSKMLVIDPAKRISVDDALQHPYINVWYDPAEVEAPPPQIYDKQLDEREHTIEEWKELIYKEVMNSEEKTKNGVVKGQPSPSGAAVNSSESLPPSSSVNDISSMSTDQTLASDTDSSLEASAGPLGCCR

SRMS = SRMS (Homo sapiens (Human), UniProt Q9H3Y6); conditions: 10000 nM, read-out: Percent Control
TNNI3K = TNNI3K (Homo sapiens (Human), UniProt Q59H18); conditions: 10000 nM, read-out: Percent Control
PIK4CB = PIK4CB (Homo sapiens (Human), UniProt Q9UBF8); conditions: 10000 nM, read-out: Percent Control
PLK1 = PLK1 (Homo sapiens (Human), UniProt P53350); conditions: PLK1, 10000 nM; read-out: Percent Control
Sequence of PLK1 (P53350 whole entry): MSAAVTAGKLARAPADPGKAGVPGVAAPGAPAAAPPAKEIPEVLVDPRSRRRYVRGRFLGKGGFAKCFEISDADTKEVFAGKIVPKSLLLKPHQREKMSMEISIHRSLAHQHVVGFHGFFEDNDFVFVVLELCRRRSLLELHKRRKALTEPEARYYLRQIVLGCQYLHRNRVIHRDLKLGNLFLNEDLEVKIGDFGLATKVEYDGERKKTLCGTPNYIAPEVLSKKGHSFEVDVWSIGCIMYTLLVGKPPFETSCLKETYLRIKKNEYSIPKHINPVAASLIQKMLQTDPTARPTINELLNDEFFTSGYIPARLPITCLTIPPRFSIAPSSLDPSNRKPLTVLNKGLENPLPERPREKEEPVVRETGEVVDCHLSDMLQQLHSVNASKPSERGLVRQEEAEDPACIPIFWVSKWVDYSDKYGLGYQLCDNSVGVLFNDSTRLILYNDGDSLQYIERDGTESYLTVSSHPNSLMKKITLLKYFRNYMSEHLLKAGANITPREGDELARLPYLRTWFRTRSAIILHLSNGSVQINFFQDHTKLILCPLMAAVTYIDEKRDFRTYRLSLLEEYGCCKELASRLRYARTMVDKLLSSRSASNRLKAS

NEK10 = NEK10 (Homo sapiens (Human), UniProt Q6ZWH5); conditions: NEK10, 10000 nM; read-out: Percent Control
MKNK1 = MKNK1 (Homo sapiens (Human), UniProt Q9BUB5); conditions: MKNK1, 10000 nM; read-out: Percent Control
Sequence of MKNK1 (Q9BUB5 whole entry): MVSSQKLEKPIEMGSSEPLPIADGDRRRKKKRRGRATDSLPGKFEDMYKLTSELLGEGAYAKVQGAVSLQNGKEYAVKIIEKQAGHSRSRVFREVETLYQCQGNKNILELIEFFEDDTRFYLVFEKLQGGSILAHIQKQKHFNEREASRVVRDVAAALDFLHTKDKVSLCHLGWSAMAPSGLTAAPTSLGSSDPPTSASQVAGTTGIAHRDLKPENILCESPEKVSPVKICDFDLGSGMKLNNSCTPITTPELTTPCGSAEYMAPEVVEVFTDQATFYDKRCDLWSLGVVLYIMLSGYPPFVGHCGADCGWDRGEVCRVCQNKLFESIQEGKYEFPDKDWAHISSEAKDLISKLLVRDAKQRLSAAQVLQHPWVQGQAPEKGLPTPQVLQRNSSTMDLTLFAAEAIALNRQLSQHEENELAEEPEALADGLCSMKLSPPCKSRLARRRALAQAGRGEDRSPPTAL

GAK = GAK (Homo sapiens (Human), UniProt O14976); conditions: 10000 nM, read-out: Percent Control
Sequence of GAK (O14976 whole entry): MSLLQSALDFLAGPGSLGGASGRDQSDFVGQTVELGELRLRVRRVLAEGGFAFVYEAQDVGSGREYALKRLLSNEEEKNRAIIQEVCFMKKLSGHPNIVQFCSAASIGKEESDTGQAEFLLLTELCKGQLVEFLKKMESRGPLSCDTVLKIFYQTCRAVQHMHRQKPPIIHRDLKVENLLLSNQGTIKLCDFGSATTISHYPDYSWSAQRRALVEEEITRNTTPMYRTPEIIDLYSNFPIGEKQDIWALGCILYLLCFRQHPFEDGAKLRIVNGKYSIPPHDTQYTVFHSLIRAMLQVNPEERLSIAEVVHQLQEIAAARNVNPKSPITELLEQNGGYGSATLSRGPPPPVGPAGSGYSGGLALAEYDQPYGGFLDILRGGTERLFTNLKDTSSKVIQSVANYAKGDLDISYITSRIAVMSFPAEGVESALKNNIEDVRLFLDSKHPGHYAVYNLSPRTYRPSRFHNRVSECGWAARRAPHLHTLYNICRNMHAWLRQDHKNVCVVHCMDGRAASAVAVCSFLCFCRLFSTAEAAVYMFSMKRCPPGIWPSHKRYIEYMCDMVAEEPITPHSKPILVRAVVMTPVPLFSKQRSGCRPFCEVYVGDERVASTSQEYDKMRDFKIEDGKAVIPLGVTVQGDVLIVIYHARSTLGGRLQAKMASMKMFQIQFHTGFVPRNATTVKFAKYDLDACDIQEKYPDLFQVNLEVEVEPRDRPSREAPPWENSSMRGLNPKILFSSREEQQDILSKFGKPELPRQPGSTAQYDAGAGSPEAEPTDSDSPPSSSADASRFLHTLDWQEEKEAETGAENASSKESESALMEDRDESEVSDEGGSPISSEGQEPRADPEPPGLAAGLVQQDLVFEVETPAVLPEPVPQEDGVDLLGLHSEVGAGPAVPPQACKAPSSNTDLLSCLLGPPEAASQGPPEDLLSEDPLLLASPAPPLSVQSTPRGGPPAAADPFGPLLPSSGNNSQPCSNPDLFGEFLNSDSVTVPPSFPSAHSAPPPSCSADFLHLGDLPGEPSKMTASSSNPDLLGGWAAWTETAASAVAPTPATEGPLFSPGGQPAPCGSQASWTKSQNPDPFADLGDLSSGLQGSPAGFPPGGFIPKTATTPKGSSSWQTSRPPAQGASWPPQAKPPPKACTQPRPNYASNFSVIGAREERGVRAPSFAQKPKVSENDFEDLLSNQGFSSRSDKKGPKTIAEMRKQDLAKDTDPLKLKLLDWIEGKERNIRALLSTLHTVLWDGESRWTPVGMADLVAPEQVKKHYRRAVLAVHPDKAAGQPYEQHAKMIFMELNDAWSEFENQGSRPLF

PRKD1 = PRKD1 (Homo sapiens (Human), UniProt Q15139); conditions: PRKD1, 10000 nM; read-out: Percent Control
BUB1 = BUB1 (Homo sapiens (Human), UniProt O43683); conditions: BUB1, 10000 nM; read-out: Percent Control
Sequence of BUB1 (O43683 whole entry): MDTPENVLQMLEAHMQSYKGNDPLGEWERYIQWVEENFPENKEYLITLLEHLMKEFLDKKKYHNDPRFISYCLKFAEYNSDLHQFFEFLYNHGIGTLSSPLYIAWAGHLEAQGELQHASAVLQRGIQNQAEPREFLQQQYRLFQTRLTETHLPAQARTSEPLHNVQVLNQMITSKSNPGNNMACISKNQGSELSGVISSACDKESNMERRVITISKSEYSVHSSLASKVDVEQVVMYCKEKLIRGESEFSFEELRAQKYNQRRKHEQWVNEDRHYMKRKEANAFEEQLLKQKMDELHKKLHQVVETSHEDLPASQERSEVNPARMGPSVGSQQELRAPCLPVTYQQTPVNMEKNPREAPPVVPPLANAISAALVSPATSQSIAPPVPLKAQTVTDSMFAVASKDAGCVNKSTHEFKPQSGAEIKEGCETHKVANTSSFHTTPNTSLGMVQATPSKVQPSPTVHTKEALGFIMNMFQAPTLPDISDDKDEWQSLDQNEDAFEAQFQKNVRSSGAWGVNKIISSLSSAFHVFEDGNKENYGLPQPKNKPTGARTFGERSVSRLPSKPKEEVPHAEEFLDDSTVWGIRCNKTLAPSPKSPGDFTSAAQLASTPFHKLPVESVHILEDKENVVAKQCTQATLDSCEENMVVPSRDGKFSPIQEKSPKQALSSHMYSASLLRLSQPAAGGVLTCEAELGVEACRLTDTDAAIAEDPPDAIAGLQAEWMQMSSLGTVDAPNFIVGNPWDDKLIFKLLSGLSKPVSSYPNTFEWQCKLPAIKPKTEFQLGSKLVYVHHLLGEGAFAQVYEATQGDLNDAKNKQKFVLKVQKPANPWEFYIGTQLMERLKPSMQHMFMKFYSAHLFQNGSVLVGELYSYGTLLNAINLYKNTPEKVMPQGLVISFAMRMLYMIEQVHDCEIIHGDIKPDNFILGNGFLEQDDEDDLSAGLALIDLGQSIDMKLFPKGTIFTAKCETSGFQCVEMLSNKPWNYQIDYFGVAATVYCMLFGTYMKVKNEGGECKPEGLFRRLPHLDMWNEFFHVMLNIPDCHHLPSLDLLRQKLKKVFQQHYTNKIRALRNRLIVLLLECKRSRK

Row | SMILES | remaining binding at 10 µM (CASK) [%] | remaining binding at 10 µM (ALK(L1196M)) [%] | remaining binding at 10 µM (S6K1) [%] | remaining binding at 10 µM (FYN) [%] | remaining binding at 10 µM (LTK) [%] | remaining binding at 10 µM (LATS1) [%] | remaining binding at 10 µM (EGFR(G719C)) [%] | remaining binding at 10 µM (IRAK4) [%] | remaining binding at 10 µM (FAK) [%] | remaining binding at 10 µM (EGFR(L858R, T790M)) [%] | remaining binding at 10 µM [1] [%] | remaining binding at 10 µM (LKB1) [%] | remaining binding at 10 µM (ABL1-nonphosphorylated) [%] | remaining binding at 10 µM (PRKD2) [%] | remaining binding at 10 µM (CLK2) [%] | remaining binding at 10 µM (TGFBR1) [%] | remaining binding at 10 µM (SNRK) [%] | remaining binding at 10 µM (AURKC) [%] | remaining binding at 10 µM (PRKR) [%] | remaining binding at 10 µM (HPK1) [%] | further results
1 | COc1cc(N2CCC(N3CCN(C)CC3)CC2)ccc1Nc1ncc2c(n1)N(C)c1sc(C)nc1C(=O)N2 [Compound 3, 6-((2-methoxy-4-(4-(4-methylpiperazin-1-yl)piperidin-1-yl)phenyl)amino)-2,4-dimethyl-4,9-dihydro-10H-pyrimido[5,4-b]thiazolo[5,4-e][1,4]diazepin-10-one] | 83 | 80 | 100 | 73 | 81 | 77 | 34 | 100 | 0.55 | 100 | 69 | 44 | 25 | 72 | 72 | 88 | 94 | 95 | 100 | 68 | remaining binding at 10 µM (FLT4): 92%; remaining binding at 10 µM (TAK1): 95%; remaining binding at 10 µM (RIOK3): 79%; remaining binding at 10 µM (SRPK3): 75%; remaining binding at 10 µM (ARK5): 86%; remaining binding at 10 µM (JNK3): 100%; remaining binding at 10 µM (SRMS): 78%; remaining binding at 10 µM (TNNI3K): 79%; remaining binding at 10 µM (PIK4CB): 85%; remaining binding at 10 µM (PLK1): 100%; remaining binding at 10 µM (NEK10): 100%; remaining binding at 10 µM (MKNK1): 100%; remaining binding at 10 µM (GAK): 4.2%; remaining binding at 10 µM (PRKD1): 78%; remaining binding at 10 µM (BUB1): 100%
2 | COc1cc(N2CCC(N3CCN(C)CC3)CC2)ccc1Nc1ncc2c(n1)N(C)c1sc(C)nc1C(=O)N2C [Compound 5, 6-((2-methoxy-4-(4-(4-methylpiperazin-1-yl)piperidin-1-yl)phenyl)amino)-2,4,9-trimethyl-4,9-dihydro-10H-pyrimido[5,4-b]thiazolo[5,4-e][1,4]diazepin-10-one] | 100 | 79 | 100 | 93 | 97 | 50 | 100 | 88 | 0.1 | 80 | 67 | 100 | 77 | 46 | 100 | 100 | 100 | 100 | 65 | 100 | remaining binding at 10 µM (FLT4): 100%; remaining binding at 10 µM (TAK1): 100%; remaining binding at 10 µM (RIOK3): 99%; remaining binding at 10 µM (SRPK3): 100%; remaining binding at 10 µM (ARK5): 94%; remaining binding at 10 µM (JNK3): 97%; remaining binding at 10 µM (SRMS): 97%; remaining binding at 10 µM (TNNI3K): 88%; remaining binding at 10 µM (PIK4CB): 100%; remaining binding at 10 µM (PLK1): 0.7%; remaining binding at 10 µM (NEK10): 94%; remaining binding at 10 µM (MKNK1): 96%; remaining binding at 10 µM (GAK): 31%; remaining binding at 10 µM (PRKD1): 43%; remaining binding at 10 µM (BUB1): 100%
